Data taken from the supplement of paper PMC10307832.

Experiments:
Test in all cases: relative viability (nuclei count vs DMSO), 5 days (fraction); higher = more cells survive
R406 + Alpelisib = compound: COc1cc(Nc2ncc(F)c(Nc3ccc4c(n3)NC(=O)C(C)(C)O4)n2)cc(OC)c1OC [R406] + Cc1nc(NC(=O)N2CCC[C@H]2C(N)=O)sc1-c1ccnc(C(C)(C)C(F)(F)F)c1 [Alpelisib] (partner 2 µM)
Method in brief: (§1)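 Values are medians from duplicate plates. Each reflects relative viability, defined as the nuclei count of treated wells over that of vehicle wells. Lung cancer cell lines in 1536-well plates were pin-tool dosed one day after seeding with one drug alone or with a fixed anchor-drug dose plus five library-drug doses (not always all listed) in √10 steps, then fixed, stained and imaged at 4× after 5 days.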

Daporinad + Palbociclib = compound: O=C(/C=C/c1cccnc1)NCCCCC1CCN(C(=O)c2ccccc2)CC1 [Daporinad] + CC(=O)c1c(C)c2cnc(Nc3ccc(N4CCNCC4)cn3)nc2n(C2CCCC2)c1=O [Palbociclib] (partner 0.5 µM)
Method in brief: as §1

Daporinad + Bortezomib = compound: O=C(/C=C/c1cccnc1)NCCCCC1CCN(C(=O)c2ccccc2)CC1 [Daporinad] + CC(C)C[C@H](NC(=O)[C@H](Cc1ccccc1)NC(=O)c1cnccn1)B(O)O [Bortezomib] (partner 0.002 µM)
Method in brief: as §1

Daporinad + AZD7762 = compound: O=C(/C=C/c1cccnc1)NCCCCC1CCN(C(=O)c2ccccc2)CC1 [Daporinad] + NC(=O)Nc1cc(-c2cccc(F)c2)sc1C(=O)N[C@H]1CCCNC1 [AZD7762] (partner 0.2 µM)
Method in brief: as §1

Cell Line | relative viability (R406 + Alpelisib; first compound 0.08 µM) | relative viability (R406 + Alpelisib; first compound 0.253 µM) | relative viability (R406 + Alpelisib; first compound 0.8 µM) | relative viability (R406 + Alpelisib; first compound 2.53 µM) | relative viability (R406 + Alpelisib; first compound 8 µM) | relative viability (Daporinad + Palbociclib; first compound 0.0005 µM) | relative viability (Daporinad + Palbociclib; first compound 0.001581 µM) | relative viability (Daporinad + Palbociclib; first compound 0.005 µM) | relative viability (Daporinad + Palbociclib; first compound 0.01581 µM) | relative viability (Daporinad + Bortezomib; first compound 0.0005 µM) | relative viability (Daporinad + Bortezomib; first compound 0.001581 µM) | relative viability (Daporinad + Bortezomib; first compound 0.005 µM) | relative viability (Daporinad + Bortezomib; first compound 0.01581 µM) | relative viability (Daporinad + AZD7762; first compound 0.0005 µM) | relative viability (Daporinad + AZD7762; first compound 0.001581 µM) | relative viability (Daporinad + AZD7762; first compound 0.005 µM) | relative viability (Daporinad + AZD7762; first compound 0.01581 µM)
NCI-H2023 | 0.541 | 0.572 | 0.685 | 0.409 | 0.474 | 0.402 | 0.405 | 0.445 | 0.401 | 1.01 | 1.1 | 1.04 | 0.972 | – | – | – | –
NCI-H1648 | – | – | – | – | – | 0.305 | 0.291 | 0.278 | 0.237 | – | – | – | – | 0.649 | 0.577 | 0.674 | 0.653
NCI-H596 | 0.486 | 0.53 | 0.621 | 0.387 | 0.183 | – | – | – | – | 1.05 | 1.02 | 0.998 | 0.788 | 0.867 | 1.09 | 1.27 | 1.03
A549 | 0.703 | 0.932 | 0.811 | 0.646 | 0.164 | – | – | – | – | – | – | – | – | – | – | – | –
NCI-H520 | 0.913 | 1.09 | 0.779 | 0.316 | 0.525 | 0.209 | 0.286 | 0.158 | 0.183 | 0.624 | 0.686 | 0.223 | 0.151 | – | – | – | –
NCI-H1944 | 0.758 | 0.84 | 0.757 | 0.652 | 0.512 | 0.36 | 0.356 | 0.374 | 0.353 | – | – | – | – | 0.474 | 0.453 | 0.6 | 0.579
NCI-H1563 | 0.938 | 0.996 | 0.924 | 0.682 | 0.634 | – | – | – | – | 0.917 | 0.958 | 0.838 | 0.691 | – | – | – | –
NCI-H1395 | 1.13 | 1.04 | 1.09 | 0.813 | 0.619 | 0.659 | 0.618 | 0.531 | 0.718 | – | – | – | – | 0.386 | 0.391 | 0.441 | 0.384
NCI-H2009 | 1.18 | 1.22 | 1.24 | 1.05 | 1.05 | 0.204 | 0.253 | 0.252 | 0.0753 | 0.887 | 1.09 | 1.06 | 0.846 | – | – | – | –
SK-MES-1 | 0.749 | 0.964 | 0.957 | 0.414 | 0.406 | 0.332 | 0.303 | 0.329 | 0.352 | – | – | – | – | – | – | – | –
IA-LM | 0.888 | 0.999 | 1 | 0.962 | 0.81 | – | – | – | – | 0.746 | 0.807 | 0.872 | 0.491 | – | – | – | –
SW 1573 | 0.753 | 1.02 | 0.739 | 0.673 | 0.494 | 0.387 | 0.398 | 0.348 | 0.307 | 1.12 | 0.769 | 1.05 | 0.714 | – | – | – | –
NCI-H1703 | 0.307 | 0.281 | 0.368 | 0.183 | 0.173 | – | – | – | – | 0.403 | 0.382 | 0.422 | 0.196 | 0.134 | 0.123 | 0.155 | 0.142
SW 900 | – | – | – | – | – | 0.432 | – | 0.573 | 0.501 | – | – | – | – | 0.647 | – | 0.72 | 0.654
